# Experimental data published in patent publication US20180353460A1, “METHODS OF TREATING UROLOGICAL DISORDERS USING SARMs” (priority 2014, published 2018).
# Several values for one entry are separate records, joined by “and”; a condition that tells them apart may be missing. Equal values may be shown once.
# Experiments:
# levator ani muscle [1] = test: Levator ani muscle weight in castrated rats treated subcutaneously for 14 days; type: in vivo, rat; settings: castrated Sprague Dawley rats, subcutaneous, 3 mg/day
# From the text: At sacrifice, organs were weighed and expressed as raw organ weights. Values are expressed as average±S.D. Increased size and strength of pelvic floor muscles is one mechanism by which SARMs are believed to affect UI.
# At sacrifice, organs were weighed and expressed as raw organ weights. Values are expressed as average±S.D.
# [2] = test system: postmenopausal women with SUI; test: Proof of concept clinical study: stress leaks per day by 3 day voiding diary; type: in vivo, human
# Procedure: This was initially a single site, proof of concept feasibility study to describe the effect of the S-isomer of the compound of Formula IX (Compound IX) 3 mg in postmenopausal female subjects with SUI. However, data presented herein were from subjects seen at 3 separate sites.
# Described is the effect of 12 weeks of treatment of Compound IX on the number of stress urinary incontinence episodes/day as assessed by the 3 day voiding diary. See leaks/day data in Tables 2 (individual subject data from all 3 sites), Tables 4-6 (mean stress leaks for sites 1, 2, and 3, respectively), and FIG. 10 (mean stress leaks/day across all sites). Further, see Table 3 for the durability of this response in subjects assessed at 16, 24, 32 and 40 weeks (and their pad weights).
# Subjects were instructed to take one 3 mg softgel capsule per day by mouth, without regard to food intake.
# This is a proof of concept feasibility study, so no power calculation was needed. Therefore, up to 35 subjects meeting inclusion/exclusion criteria would be recruited until the enrolled subjects have completed treatment. Further, durability was assessed at 40 weeks. Descriptive statistics were performed to explore changes in primary and secondary outcomes measures between baseline and weeks 12 (end of treatment) or 40 (durability). The primary efficacy measure was a reduction in the number of stress incontinence episodes/day. […] Safety will be determined by the number and type of adverse events reported during treatment, but is reported here from historical data from other clinical trials. Various imputation methods may be explored.
# Change in frequency of daily stress urinary incontinence episodes from Baseline to Week 12 and durability at 40 weeks (28 weeks after Compound IX treatment is discontinued).
# The data were collected from first 18 patients at 12 weeks and are derived from number of stress leaks reported by subjects in a 3 day voiding diary. […] Table 3 provides durability data of Compound IX for 18 patients and depicts that, for the first 9 subjects, this response was durable out to 40 weeks, i.e., 28 weeks (7 months) after treatment with Compound IX was discontinued. Data collection and analysis is ongoing.
# human subjects = test: Safety profile from other clinical trials (treatment related adverse events); type: in vivo
# Procedure: Described is the safety profile of Compound IX 3 mg PO daily in subjects with SUI. See Table 8 which is historical data from other clinical trials establishing the safety profile of Compound IX in human subjects. See also the lack of increase in endometrial thickness in Example 19.
# For the PGI-S measure, 12 patients reported symptoms as “moderate” or “severe” at baseline; whereas only 3 patients reported “moderate” symptoms and no patients reported “severe” at 12 weeks (FIG. 12A).
# Mean stress leaks decreased by 81 percent from baseline over 12 weeks (5.17 leaks/day at baseline to 1.0 leaks/day at week 12), and the reductions in daily stress leaks following completion of treatment have been sustained as subjects are being followed for up to 7 months post-treatment to assess the durability of treatment effect (0.63 leaks/day at 40 weeks (7 months post-treatment) in the first nine subjects). No subject has relapsed to their baseline levels. Urge urinary incontinence was also observed in 11 subjects, and Compound IX produced a 68% reduction from baseline over 12 weeks in these patients, which was also observed to be durable for at least 7 months (N=7). […] All were consistent with AR pharmacology and previous clinical trials with Compound IX. Based on the results from this Phase 2 proof-of-concept study with Compound IX, a randomized, placebo-controlled Phase 2 clinical trial to evaluate the change in frequency of daily stress urinary incontinence episodes following 12 weeks of treatment was initiated. The trial will evaluate the safety and efficacy of Compound IX (1 mg and 3 mg) compared with placebo in postmenopausal women with SUI.
# levator ani muscle [3] = test: Earlier male rat model with castrate levels of serum testosterone; type: in vivo
# From the text: (§1) Extensive clinical data related to the use of Compound IX are described below; however, there are both preclinical and clinical data supporting the specific investigation of Compound IX for the treatment of SUI. Among the preclinical findings are that Compound IX has androgenic and anabolic activity in male and female rat models. […] These studies together provide an approximation of the expected effect of Compound IX, since currently there are no data in female models regarding levator ani hypertrophy or stress urinary incontinence. […] Based upon these preclinical and clinical analyses, a significant growth/bulking of the levator ani in females with SUI was anticipated, which may also result in improvements in associated symptoms, and are therefore the focus of the study outlined herein.
# male and female humans = test: Phase 3 studies G300504 and G300505: lean body mass; type: in vivo, human; settings: 3 mg daily, two phase 3 studies
# From the text: as §1
smiles,measurement,setting,value
"C[C@](O)(COc1ccc(C#N)cc1)C(=O)Nc1ccc(C#N)c(C(F)(F)F)c1 [Compound IX, (S)—N-(4-Cyano-3-(trifluoromethyl)phenyl)-3-(4-cyanophenoxy)-2-hydroxy-2-methylpropanamide]",levator ani muscle weight,levator ani muscle [1],elicits hypertrophy of the levator ani muscle
same,mean stress leaks/day at 40 weeks,"[2]; N=9, 7 months after discontinuation",0.63 leaks/day
same,Stress Leaks % Reduction,"[2]; Site 1 (n = 10), week 12",86%
same,Stress Leaks % Reduction,"[2]; Site 2 (n = 5), week 12",75%
same,Stress Leaks % Reduction,"[2]; Site 3 (n = 2), week 12",78%
same,reduction of mean stress leaks/day from baseline to week 12,"[2]; all sites, 18 patients",81%
same,mean stress leaks/day at week 12,"[2]; all sites, 18 patients, baseline 5.17",1.0 leaks/day and 1.00 leaks/day
same,"Leaks/Day (Week 12), stress leaks","[2]; individual patients, 3 mg/day p.o., week 12",2.33 leaks/day and 0 leaks/day (3×) and 1 leaks/day (2×) and 1.33 leaks/day (2×) and 0.33 leaks/day (3×) and 1.66 leaks/day and 1.30 leaks/day and .67 leaks/day and 2.3 leaks/day and .33 leaks/day and 3 leaks/day and 0.67 leaks/day
same,Durability of response: % Reduction in leaks/day Week 16,"[2]; individual patients, 4 weeks post-treatment",77% and 100% (5×) and 60% and 50% and 92% and 89% and 79% and 78% and 64% and 65%
same,Durability of response: % Reduction in leaks/day Week 24,"[2]; individual patients, 12 weeks post-treatment",69% and 100% (6×) and 70% and 42% and 95% and 10% and 57% and 78% and 50% and 60%
same,Durability of response: % Reduction in leaks/day Week 32,"[2]; individual patients, 20 weeks post-treatment",54% and 95% and 100% (3×) and 17% and 50% and 36% and 55% and 93%
same,Durability of response: % Reduction in leaks/day Week 40,"[2]; individual patients, 28 weeks post-treatment",69% and 100% (5×) and 80% and 42% and 72%
same,patients who were responders (50% or greater reduction in stress leaks/day),"[2]; week 12, 18 patients",all patients were responders and All 18 patients were responders and All 18 subjects and all 18 subjects and 18 of 18
same,"Abdominal Pain, figure in parentheses (percent of subjects)",human subjects; N = 896,(0.8)
same,"Abdominal Pain, number of subjects",human subjects; N = 896,7
same,"Alanine Aminotransferase Increased, figure in parentheses (percent of subjects)",human subjects; N = 896,(2.1)
same,"Alanine Aminotransferase Increased, number of subjects",human subjects; N = 896,19
same,"Any Treatment Related Adverse Event, figure in parentheses (percent of subjects)",human subjects; N = 896,(24.4)
same,"Any Treatment Related Adverse Event, number of subjects",human subjects; N = 896,219
same,"Back pain, figure in parentheses (percent of subjects)",human subjects; N = 896,(1.5)
same,"Back pain, number of subjects",human subjects; N = 896,13
same,"Constipation, figure in parentheses (percent of subjects)",human subjects; N = 896,(1.3)
same,"Constipation, number of subjects",human subjects; N = 896,12
same,"Diarrhea, figure in parentheses (percent of subjects)",human subjects; N = 896,(2.1)
same,"Diarrhea, number of subjects",human subjects; N = 896,19
same,"Dizziness Postural, figure in parentheses (percent of subjects)",human subjects; N = 896,(0.6)
same,"Dizziness Postural, number of subjects",human subjects; N = 896,5
same,"Dizziness, figure in parentheses (percent of subjects)",human subjects; N = 896,(2.0)
same,"Dizziness, number of subjects",human subjects; N = 896,18
same,"Dyspnea, figure in parentheses (percent of subjects)",human subjects; N = 896,(0.9)
same,"Dyspnea, number of subjects",human subjects; N = 896,8
same,"Fatigue, figure in parentheses (percent of subjects)",human subjects; N = 896,(0.9)
same,"Fatigue, number of subjects",human subjects; N = 896,8
same,"Headache, figure in parentheses (percent of subjects)",human subjects; N = 896,(5.7)
same,"Headache, number of subjects",human subjects; N = 896,51
same,"Hot Flush, figure in parentheses (percent of subjects)",human subjects; N = 896,(0.7)
same,"Hot Flush, number of subjects",human subjects; N = 896,6
same,"Hyperhidrosis, figure in parentheses (percent of subjects)",human subjects; N = 896,(1.0)
same,"Hyperhidrosis, number of subjects",human subjects; N = 896,9
same,"Insomnia, figure in parentheses (percent of subjects)",human subjects; N = 896,(0.6)
same,"Insomnia, number of subjects",human subjects; N = 896,5
same,"Muscle Spasms, figure in parentheses (percent of subjects)",human subjects; N = 896,(0.7)
same,"Muscle Spasms, number of subjects",human subjects; N = 896,6
same,"Myalgia, figure in parentheses (percent of subjects)",human subjects; N = 896,(0.7)
same,"Myalgia, number of subjects",human subjects; N = 896,6
same,"Nausea, figure in parentheses (percent of subjects)",human subjects; N = 896,(3.0)
same,"Nausea, number of subjects",human subjects; N = 896,27
same,"Pain in Extremity, figure in parentheses (percent of subjects)",human subjects; N = 896,(1.2)
same,"Pain in Extremity, number of subjects",human subjects; N = 896,11
same,"Pruritus, figure in parentheses (percent of subjects)",human subjects; N = 896,(1.0)
same,"Pruritus, number of subjects",human subjects; N = 896,9
same,"Rash, figure in parentheses (percent of subjects)",human subjects; N = 896,(0.6)
same,"Rash, number of subjects",human subjects; N = 896,5
same,"Somnolence, figure in parentheses (percent of subjects)",human subjects; N = 896,(1.0)
same,"Somnolence, number of subjects",human subjects; N = 896,9
same,"Vomiting, figure in parentheses (percent of subjects)",human subjects; N = 896,(1.3)
same,"Vomiting, number of subjects",human subjects; N = 896,12
same,general safety and tolerability,"human subjects; about 1,200 individuals, doses 0.1 mg to 100 mg",generally safe and well tolerated
same,hypertrophy of the levator ani muscle,levator ani muscle [3],approximately 120 % of an intact male
same,increase in lean body mass,male and female humans,approximately 1.7%
